21 compounds from patent US11999699B2, “Substituted pyrazole amides” (GRUENENTHAL GMBH, priority 2021, dated 2024) can be followed below.

This assay addresses T1, human NaV1.8 (Homo sapiens, UniProt Q9Y5Y9).
T1 construct: The following NaV1.8 recombinant cell line was used for recordings: HEK-NaV1.8 (NM 006514.1); expressed in transfected cells; host or cells: HEK (recombinant cell line HEK-NaV1.8)
The assay is described as follows: Electrophysiology: automated whole-cell voltage-clamp (patch clamp, Qube384) recordings of sodium currents in HEK-NaV1.8 cells. It counts as cell-based. The note with it: potency data either taken from inactivated or resting state, read-out: Potency category (human NaV1.8 IC50). The procedure, abridged: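 Automated whole-cell patch clamp at room temperature on HEK cells expressing human NaV1.8, with 0.3% DMSO vehicle controls. State-dependent protocol from −120 mV tested resting (P1) and half-inactivated (P2, 4 s at V1/2) channels, plus 40-pulse trains at 10 and 20 Hz. Values after ~12 min compound exposure were normalised to baseline and corrected for vehicle run-down; IC50 from a 4-parameter logistic fit, taken from inactivated or resting state.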

Structures are written as SMILES.

T1 sequence (Q9Y5Y9 whole entry): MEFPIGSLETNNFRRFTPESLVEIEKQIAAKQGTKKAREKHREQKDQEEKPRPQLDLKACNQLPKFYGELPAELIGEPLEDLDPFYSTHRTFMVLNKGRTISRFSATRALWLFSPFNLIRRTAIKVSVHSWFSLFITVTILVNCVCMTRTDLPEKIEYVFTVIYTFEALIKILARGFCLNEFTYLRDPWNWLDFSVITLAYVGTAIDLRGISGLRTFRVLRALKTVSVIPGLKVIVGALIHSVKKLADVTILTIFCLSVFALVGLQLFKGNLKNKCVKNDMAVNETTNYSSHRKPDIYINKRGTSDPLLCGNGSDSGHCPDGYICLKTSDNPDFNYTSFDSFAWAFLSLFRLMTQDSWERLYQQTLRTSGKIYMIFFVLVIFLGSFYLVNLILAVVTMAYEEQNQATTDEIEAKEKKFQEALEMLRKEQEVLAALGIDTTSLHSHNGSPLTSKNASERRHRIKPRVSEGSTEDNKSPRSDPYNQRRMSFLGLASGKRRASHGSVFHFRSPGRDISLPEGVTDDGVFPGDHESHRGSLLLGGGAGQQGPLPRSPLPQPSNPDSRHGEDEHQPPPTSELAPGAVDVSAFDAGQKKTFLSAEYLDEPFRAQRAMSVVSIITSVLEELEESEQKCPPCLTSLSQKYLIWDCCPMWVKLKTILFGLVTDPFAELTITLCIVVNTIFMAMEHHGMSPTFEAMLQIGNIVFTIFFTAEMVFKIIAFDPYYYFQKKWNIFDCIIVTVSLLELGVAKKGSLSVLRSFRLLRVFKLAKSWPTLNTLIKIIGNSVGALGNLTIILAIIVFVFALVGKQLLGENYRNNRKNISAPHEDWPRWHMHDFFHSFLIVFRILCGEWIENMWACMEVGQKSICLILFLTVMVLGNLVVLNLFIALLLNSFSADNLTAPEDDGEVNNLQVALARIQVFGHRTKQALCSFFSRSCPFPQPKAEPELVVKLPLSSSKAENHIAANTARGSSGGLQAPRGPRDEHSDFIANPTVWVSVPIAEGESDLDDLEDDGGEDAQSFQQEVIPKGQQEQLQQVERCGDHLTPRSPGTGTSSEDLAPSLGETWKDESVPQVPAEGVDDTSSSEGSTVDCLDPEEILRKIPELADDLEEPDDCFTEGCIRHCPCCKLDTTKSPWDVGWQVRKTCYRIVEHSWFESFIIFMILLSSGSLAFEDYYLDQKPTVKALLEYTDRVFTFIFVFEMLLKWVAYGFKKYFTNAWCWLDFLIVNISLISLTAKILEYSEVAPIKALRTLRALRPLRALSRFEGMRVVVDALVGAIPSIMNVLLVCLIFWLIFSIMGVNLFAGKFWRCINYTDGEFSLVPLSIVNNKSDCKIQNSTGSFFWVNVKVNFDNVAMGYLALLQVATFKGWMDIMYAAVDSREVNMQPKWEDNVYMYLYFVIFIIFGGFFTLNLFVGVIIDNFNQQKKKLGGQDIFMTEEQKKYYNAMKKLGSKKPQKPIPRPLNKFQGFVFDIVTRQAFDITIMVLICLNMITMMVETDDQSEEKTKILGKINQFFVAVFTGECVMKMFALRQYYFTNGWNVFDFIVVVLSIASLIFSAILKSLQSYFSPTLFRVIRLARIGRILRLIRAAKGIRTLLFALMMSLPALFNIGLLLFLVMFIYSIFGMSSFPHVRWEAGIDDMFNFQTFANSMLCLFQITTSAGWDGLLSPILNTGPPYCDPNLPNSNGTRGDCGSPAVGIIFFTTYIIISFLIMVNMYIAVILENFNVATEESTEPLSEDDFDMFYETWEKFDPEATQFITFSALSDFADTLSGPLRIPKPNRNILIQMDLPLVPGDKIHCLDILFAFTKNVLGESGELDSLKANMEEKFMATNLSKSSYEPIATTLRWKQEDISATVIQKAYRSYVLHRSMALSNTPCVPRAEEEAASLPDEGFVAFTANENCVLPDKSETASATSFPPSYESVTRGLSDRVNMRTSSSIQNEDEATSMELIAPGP
T1 sequence (Q9NY72 23-215 partner): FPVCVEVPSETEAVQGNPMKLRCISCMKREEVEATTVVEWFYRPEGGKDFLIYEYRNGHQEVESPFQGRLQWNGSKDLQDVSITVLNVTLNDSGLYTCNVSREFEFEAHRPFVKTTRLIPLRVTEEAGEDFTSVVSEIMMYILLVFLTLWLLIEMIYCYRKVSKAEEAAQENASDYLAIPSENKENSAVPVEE

`Cc1c(C(C)(F)F)nn(CC2CCC(F)(F)C2)c1C(=O)Nc1ccnc(C(N)=O)c1` (stereo not drawn) [SC-167, 4-(1-((3,3-difluorocyclopentyl)methyl)-3-(1,1-difluoroethyl)-4-methyl-1H-pyrazole-5-carboxamido)picolinamide]: the IC50 was not above 100 nM.

Take `CS(=O)(=O)c1cc(NC(=O)c2c(C(F)(F)F)c(C3CC3)nn2C[C@@H]2CCO[C@@H]2C(F)(F)F)ccn1` (single isomer, unassigned) [SC-150b]: the IC50 is not above 100 nM.

With `CS(=O)(=O)c1cccc(NC(=O)c2cc(C3CC3)nn2CC2CCCCC2)c1` [SC-12, 2-(cyclohexylmethyl)-5-cyclopropyl-N-(3-methylsulfonylphenyl)pyrazole-3-carboxamide], the IC50 fell in the range of 100 to 1000 nM.

On to `Cc1nn(CC2CCO2)c(C(=O)Nc2cccc(S(C)(=O)=O)c2)c1C(F)(F)F` (stereo not drawn) [SC-237, 3-methyl-N-(3-(methyIsulfonyl)phenyl)-1-(oxetan-2-yimethyl)-4-(trifluoromethyl)-1H-pyrazole-5-carboxamide], for which the IC50 lay within 1000 to 10000 nM.

For the compound `NC(=O)c1cc(NC(=O)c2c(C(F)(F)F)c(C(F)F)nn2CC2CCC(F)(F)C2)ccn1` (stereo not drawn) [SC-325, 4-(1-((3,3-difluorocyclopentyl)methyl)-3-(difluoromethyl)-4-(trifluoromethyl)-1H-pyrazole-5-carboxamido)picolinamide], the IC50 is not above 100 nM.

On to `COC1CC(Cn2nc(C3CC3)c(C(F)(F)F)c2C(=O)Nc2ccnc(C(N)=O)c2)C1` (single isomer, unassigned) [SC-281b], for which the concentration for half-maximal inhibition (IC50) lay within 100 to 1000 nM.

As for `COC1CC(Cn2nc(C3CC3)c(C(F)(F)F)c2C(=O)Nc2ccnc(C(N)=O)c2)C1` (single isomer, unassigned) [SC-281a], the IC50 lay within 100 to 1000 nM.

For `Cc1nn(CC2CCOCC2)c(C(=O)Nc2cccc(S(N)(=O)=O)c2)c1C` [SC-45, 3,4-dimethyl-N-(3-sulfamoylphenyl)-1-((tetrahydro-2H-pyran-4-yl)methyl)-1H-pyrazole-5-carboxamide], the IC50 fell in the range of 1000 to 10000 nM.

With `Cc1nn(C[C@@H]2CCC(F)(F)C2)c(C(=O)Nc2cncc(C(N)=O)c2)c1C(F)(F)F` [SC-247R], the IC50 lay in the range of 1000 to 10000 nM.

For the compound `Cc1c(C(C)(F)F)nn(CC2(C)CC(F)(F)C2)c1C(=O)Nc1ccnc(S(C)(=O)=O)c1` [SC-210, 1-((3,3-difluoro-1-methyleyclobutyl)methyl)-3-(1,1-difluoroethyl)-4-methyl-N-(2-(methylsulfonyl)pyridin-4-yl)-1H-pyrazole-5-carboxamide], the IC50 was not above 100 nM.

Regarding `CS(=O)(=O)n1cc(NC(=O)c2c(C(F)(F)F)cnn2CC2CCCCC2)c2cccnc21` [SC-53, 1-(cyclohexylmethyl)-N-(1-(methylsulfonyl)-1H-pyrrolo[2,3-b]pyridin-3-yl)-4-(trifluoromethyl)-1H-pyrazole-5-carboxamide], the IC50 was not above 100 nM.

For `CS(=O)(=O)c1cc(NC(=O)c2c(C(F)F)c(C3CC3)nn2CC2CCOCC2)ccn1` [SC-153, 3-cyclopropyl-4-(difluoromethyl)-N-(2-(methylsulfonyl)pyridin-4-yl)-1-((tetrahydro-2H-pyran-4-yl)methyl)-1H-pyrazole-5-carboxamide], the IC50 was not above 100 nM.

`Cc1nn(CC2CCCCC2)c(C(=O)Nc2cccc(S(C)(=O)=O)c2)c1C` [SC-06, 2-(cyclohexylmethyl)-4,5-dimethyl-N-(3-methylsulfonylphenyl)pyrazole-3-carboxamide]: the IC50 lay within 100 to 1000 nM.

Turning to `NC(=O)c1cc(NC(=O)c2c(C(F)(F)F)c(C3CC3)nn2CC2CC2(F)F)ccn1` (single isomer, unassigned) [SC-279a], the IC50 was 100 to 1000 nM.

`Cc1cnc(C(N)=O)cc1NC(=O)c1c(C(F)(F)F)c(C)nn1CC1CCC(F)(F)CC1` [SC-249, 4-(1-((4,4-difluorocyclohexyl)methyl)-3-methyl-4-(trifluoromethyl)-1H-pyrazole-5-carboxamido)-5-methyipicolinamide]: the IC50 was 100 to 1000 nM.

On to `CS(=O)(=O)c1ccc(F)c(NC(=O)c2c(C(F)(F)F)cnn2CC2CCC(F)(F)CC2)c1` [SC-22, 1-[(4,4-difluorocyclohexyl)methyl]-N-(2-fluoro-5-methanesulfonylphenyl)-4-(trifluoromethyl)-1H-pyrazole-5-carboxamide], for which the IC50 fell in the range of 1000 to 10000 nM.

In the case of `CS(=O)(=O)c1cccc(NC(=O)c2c(C3CC3)cnn2CC2CCCCC2)c1` [SC-19, 2-(cyclohexylmethyl)-4-cyclopropyl-N-(3-methylsulfonylphenyl)pyrazole-3-carboxamide], the IC50 lay in the range of 100 to 1000 nM.

Turning to `CS(=O)(=O)c1cccc(NC(=O)c2cc(C(F)(F)F)nn2CC2CCCC2)c1` [SC-03, 2-(cyclopentylmethyl)-N-(3-methylsulfonylphenyl)-5-(trifluoromethyl)pyrazole-3-carboxamide], the half-inhibitory concentration (IC50) fell in the range of 100 to 1000 nM.

For `COc1nn(CC2CCC(F)(F)C2)c(C(=O)Nc2cccc(S(N)(=O)=O)c2)c1C(F)(F)F` (stereo not drawn) [SC-265, 1-((3,3-difluorocyclopentyl)methyl)-3-methoxy-N-(3-sulfamoyIphenyl)-4-(trifluoromethyl)-1H-pyrazole-5-carboxamide], the IC50 was not above 100 nM.

Take `Cc1c(C(C)(F)F)nn(CC2CC(F)(F)C2)c1C(=O)Nc1cccc(S(N)(=O)=O)c1` [SC-295, 1-((3,3-difluorocyclobutyl)methyl)-3-(1,1-difluoroethyl)-4-methyl-N-(3-sulfamoylphenyl)-1H-pyrazole-5-carboxamide]: the IC50 was not above 100 nM.

For `CS(=O)(=O)c1cc(NC(=O)c2c(C(F)(F)F)c(C3CC3)nn2CC2CCCO2)ccn1` (stereo not drawn) [SC-263, 3-cyclopropyl-N-(2-(methylsulfonyl)pyridin-4-yl)-1-((tetrahydrofuran-2-yl)methyl)-4-(trifluoromethyl)-1H-pyrazole-5-carboxamide], the IC50 lay within 100 to 1000 nM.
